Assay results reported in patent US10751380B2, “Compound and method for treating spasms, inflammation and pain” (priority 2018, dated 2020).
Several values for one entry are separate records, joined by “and”; a condition that tells them apart may be missing. Equal entries are not always repeated. Where two headings read alike, the source gives them in different places.

Key:
[1] = mice, cited from earlier work
[2] = topical; cited from earlier work
[3] = of 750 courses of oral therapy; cited from earlier work
[4] = cited from earlier work
[5] = doses of 15 and 20 mg; cited from earlier work
[6] = 20 mg of THC and 120 mg of codeine; cited from earlier work
[7] = cited from earlier work; for analgesic effect versus placebo: 5 mg of THC and 50 mg of codeine
[8] = 50 mg of THC daily, P<0.01; cited from earlier work
[9] = cited from earlier work; for excretion: as acid metabolites
[10] = cited from earlier work; remark: listed apart in the source
[11] = oral, dissolved in sesame oil, cited from earlier work
[12] = dogs, cited from earlier work
[13] = monkeys, up to 9000 mg/kg THC; cited from earlier work
[14] = Acute oral toxicity of THC in rats (Thompson 1973); conditions: 150 lb., female or male, respectively
[15] = cited from earlier work; remark: listed apart in the source
[16] = mice, oral administration; cited from earlier work
[17] = molecular target: μ-subtype opioid receptor (MOR) (Homo sapiens, UniProt P35372); conditions: cited from earlier work
μ-subtype opioid receptor (MOR), sequence (P35372 whole entry): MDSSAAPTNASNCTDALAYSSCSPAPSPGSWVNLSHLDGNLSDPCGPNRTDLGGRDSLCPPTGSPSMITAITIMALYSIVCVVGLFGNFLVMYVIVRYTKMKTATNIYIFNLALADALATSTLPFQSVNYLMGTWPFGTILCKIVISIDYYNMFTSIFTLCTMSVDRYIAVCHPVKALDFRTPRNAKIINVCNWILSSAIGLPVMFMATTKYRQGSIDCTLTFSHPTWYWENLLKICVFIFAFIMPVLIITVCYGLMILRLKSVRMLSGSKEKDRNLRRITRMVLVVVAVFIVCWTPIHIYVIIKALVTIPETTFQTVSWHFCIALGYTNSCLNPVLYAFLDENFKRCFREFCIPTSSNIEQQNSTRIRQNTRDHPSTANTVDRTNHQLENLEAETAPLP

[18] = mice, subcutaneous; cited from earlier work
[19] = by mouth, immediate-release formulation; cited from earlier work
[20] = animal studies, compared with codeine; cited from earlier work
[21] = cited from earlier work; remark: listed apart in the source
[22] = cited from earlier work; remark: listed apart in the source
[23] = cited from earlier work; remark: listed apart in the source
[24] = cited from earlier work; remark: listed apart in the source
[25] = cited from earlier work; remark: listed apart in the source
[26] = man, cited from earlier work
[27] = cited from earlier work; remark: listed apart in the source
[28] = 2 mg/mL; cited from earlier work

CCCCCc1cc(O)c2c(c1)OC(C)(C)[C@@H]1CCC(C)=C[C@@H]21 [THC, (−)-(6aR,10aR)-6,6,9-trimethyl-3-pentyl-6a,7,8,10a-tetrahydro-6H-benzo[c]chromen-1-ol]
dose at which maximally effective in the PBQ test ([1]; dose that induced catalepsy): 10 mg/kg
antagonism of TPA-induced erythema of skin [2]: least effective
poor or partial response [3]: approximately 65%
analgesia versus placebo ([4]; human small RCTs): significantly superior to placebo
time of peak analgesia ([4]; human small RCTs): around 5 hours
pain relief versus placebo [5]: significantly superior to placebo
analgesic effectiveness, THC versus codeine [6]: equally effective
analgesic effect versus placebo [7]: analgesic effect in comparison with placebo
effect on spasticity ([7]; 5 mg of THC): significant effect on spasticity
morphine requirement during active treatment [8]: significantly reduced
excretion ([9]; feces): 65-80%
bioavailability ([9]; healthy adults): 10-20%
biological half-life ([9]; in vivo): 1.6-59 h
metabolism ([9]; in vivo): mostly hepatic by CYP2C
bioavailability ([9]; inhalation): 10-35%
absolute bioavailability ([9]; oral administration, on an average): 13%
bioavailability ([9]; oral): 6-20%
biological half-life ([9]; orally administered dronabinol): 25-36 h
excretion ([9]; urine): 20-35%
patients who experienced sedation ([10]; 10 mg/m2): one-third
patients with euphoria ([10]; 10 mg/m2): majority of patients
patients' self-reports of nausea and vomiting versus placebo ([10]; 22 cancer patients resistant to conventional anti-emetics, oral): statistically superior to placebo
LD50 ([11]; female rats): 730 mg/kg
LD50 ([11]; male rats): 1270 mg/kg
minimum lethal oral dose ([12]; oral): more than 3 g/kg
death due to toxicity at maximum dose ([12]; up to 3000 mg/kg THC): no cases of death
death due to toxicity at maximum dose [13]: no cases of death
LD50 scaled up to an adult human [14]: 50 to 86 g

C=C(C)[C@@H]1CCC(C)=C[C@H]1c1c(O)cc(CCCCC)cc1O [CBD, cannabidiol]
effectiveness at inhibition of PBQ-induced writhing among cannabinoids ([1]; oral, 100 micrograms/kg): most effective

COc1ccc2c3c1O[C@H]1[C@@H](O)C=C[C@H]4[C@@H](C2)N(C)CC[C@@]341 [codeine]
analgesic effectiveness, THC versus codeine [6]: equally effective
analgesic effect versus placebo [7]: analgesic effect in comparison with placebo

CC(=O)Oc1cc(O[C@H](C)CCCc2ccccc2)cc2c1[C@@H]1C[C@H](O)CC[C@H]1[C@H](C)N2 [Levonantradol]
analgesia versus placebo ([4]; human small RCTs): superior to placebo
patients reporting sedation ([4]; in vivo): almost half the patients
analgesia versus placebo ([15]; 1.5, 2, 2.5, 3 mg intermuscular, all doses, at least P<0.05, no dose-response): significantly superior to placebo
patients reporting at least one side-effect ([15]; human, in vivo): 57%

CCCCCc1cc(O)cc(O)c1 [olivetol]
dose of maximal effect in the PBQ test [1]: about 100 micrograms/kg

CC[C@@H]1CN2CC[C@@]3(O)C(=Nc4cccc(OC)c43)[C@@H]2C[C@@H]1/C(=C\OC)C(=O)OC [7-hydroxymitragynine, (αE,2S,3S,7aS,12bS)-3-ethyl-1,2,3,4,6,7,7a,12b-octahydro-7a-hydroxy-8-methoxy-α-(methoxymethylene)-indolo[2,3-a]quinolizine-2-acetic acid methyl ester]
analgesic potency relative to morphine [16]: thirteen times more potent analgesic than morphine
activity at the μ-subtype opioid receptor (MOR) [17]: partial agonists
gastrointestinal transit [18]: inhibition of the gastrointestinal transit

CCCCCc1cc(O)c2c(c1)OC(C)(C)c1ccc(C)cc1-2 [CBN, cannabinol]
inhibition of PBQ-induced writhing ([1]; doses higher than 10 mg/kg): 40%
antagonism of TPA-induced erythema of skin [2]: least effective

COc1cccc(C2(O)CCCCC2CN(C)C)c1 (centres unmarked) [Tramadol]
onset of pain relief [19]: within an hour

CC[C@@H]1CN2CCc3c([nH]c4cccc(OC)c34)[C@H]2C[C@@H]1/C(=C\OC)C(=O)OC (stereo in doubt) [mitragynine, (aE,2S,3S,12bS)-3-ethyl-1,2,3,4,6,7,12,12b-octahydro-8-methoxy-α-(methoxymethylene)-indolo[2,3-a]quinolizine-2-acetic acid methyl ester]
activity at the μ-subtype opioid receptor (MOR) [17]: partial agonists
antinociceptive and cough-suppressant effects [20]: comparable to those of codeine
lethality ([21]; rats, 200 mg/kg): lethal effects
toxicity ([21]; rodents, dose levels of 800-900 mg/kg): no toxicity
pKa ([22]; conventional UV): 8.11±0.11
pKa ([22]; microplate reader determination): 8.08±0.04
log P [23]: 1.73 and 1.70
water solubility [24]: < 100 µg/mL
total drug release in in vitro dissolution ([25]; simulated gastric fluid (SGF)): higher
drug release in in vitro dissolution ([25]; simulated intestinal fluid (SIF)): prolonged and incomplete
urine excretion of unchanged form ([26]; 24-hour period): 0.14%
apparent volume of distribution ([26]; oral Kratom tea, nine subjects): 38.04 ± 24.32 L/kg
terminal half-life ([26]; oral Kratom tea, nine subjects): 23.24 ± 16.07 h
time to reach the maximum plasma concentration ([26]; oral Kratom tea, nine subjects): 0.83 ± 0.35 h
2-deoxy-D-glucose-stimulated gastric acid secretion ([27]; administration into fourth ventricle of anesthetized rats, reversed by naloxone): inhibition of 2-deoxy-D-glucose-stimulated gastric acid secretion in a dose dependent manner
basal gastric acid secretion ([27]; administration into the lateral ventricle): did not alter
nerve conduction, compound nerve action potential [28]: blocked the nerve conduction, amplitude and duration of compound nerve action potential
